{
  "source": "patent US20260174823A1",
  "about": "(The Children's Medical Center Corporation, priority 2022, published 2026)",
  "molecules": {"B1": {"name": "Fremanezumab (antibody, chains of the INN, looked up, V domains shown)", "VH": "EVQLVESGGGLVQPGGSLRLSCAASGFTFSNYWISWVRQAPGKGLEWVAEIRSESDASATHYAEAVKGRFTISRDNAKNSLYLQMNSLRAEDTAVYYCLAYFDYGLAIQNYWGQGTLVTVSS", "VL": "EIVLTQSPATLSLSPGERATLSCKASKRVTTYVSWYQQKPGQAPRLLIYGASNRYLGIPARFSGSGSGTDFTLTISSLEPEDFAVYYCSQSYNYPYTFGQGTKLEIK", "notes": "a monoclonal antibody antagonist of CGRP"}, "B2": {"name": "Galcanezumab (antibody, chains of the INN, looked up, V domains shown)", "VH": "QVQLVQSGAEVKKPGSSVKVSCKASGYTFGNYWMQWVRQAPGQGLEWMGAIYEGTGKTVYIQKFADRVTITADKSTSTAYMELSSLRSEDTAVYYCARLSDYVSGFGYWGQGTTVTVSS", "VL": "DIQMTQSPSSLSASVGDRVTITCRASKDISKYLNWYQQKPGKAPKLLIYYTSGYHSGVPSRFSGSGSGTDFTLTISSLQPEDFATYYCQQGDALPPTFGGGTKVEIK", "notes": "a second monoclonal antibody antagonist of CGRP"}},
  "key": {"[1]": {"test_system": "murine model for endometriosis pain", "test": "endometriosis-associated pain overall (von Frey plus spontaneous pain behaviors) in mouse model", "format": "in vivo", "conditions": "vs vehicle", "procedure": "(§1) After at least one week of acclimatization, donor mice received a subcutaneous injection of 3 μg/mouse estradiol benzoate to stimulate the growth of the endometrium. Seven days later, the uteri of the donor mice were dissected into a Petri dish containing HBSS and split longitudinally with a pair of scissors. Uterine horns from each donor mouse were minced with scissors and scalpel one at the time, ensuring that the maximal diameter of each fragment was consistently smaller than 1 millimeter (mm). Each dissociated uterine horn was then injected intraperitoneally using an 18 G needle into a recipient mouse in 500 μL of HBSS. One donor mouse was used for every two endometriosis mice.\n(§2) For mechanical and heat hyperalgesia tests, mice were allowed to habituate to the apparatus for at least 2 hours and during three consecutive days before the beginning of measurements. […] Pain intensity to a mechanical stimulus (mechanical hyperalgesia) in the abdominal region was measured using von Frey filaments. […] The mechanical threshold was determined by the up and down method starting with 0.4 g filament and calculated using the open-source software Up-Down Reader.\nFor spontaneous abdominal pain measurements, stretching the abdomen (abdominal contortions) and squashing of the lower abdomen against the floor were quantified. […]"}, "endometriosis lesions": {"test_system": "endometriosis lesions", "test": "endometriosis lesion size measured with calipers in mouse model", "format": "in vivo"}, "[2]": {"test_system": "murine model for endometriosis pain", "test": "von Frey testing of abdominal mechanical pain in non-surgical mouse model of endometriosis", "format": "in vivo", "procedure": "as §1, §2\nIt was therefore tested whether Rimegepant is effective at reducing pain in a murine model (FIG. 1A). […] Lesion size was calculated from the mean of two measurements (width and height in mm). […]"}, "[3]": {"test_system": "murine model for endometriosis pain", "test": "spontaneous pain quantification (abdominal squashing and contortions) in mouse model of endometriosis", "format": "in vivo", "procedure": "as §1\nFor spontaneous abdominal pain measurements, stretching the abdomen (abdominal contortions) and squashing of the lower abdomen against the floor were quantified. Briefly, for the abdominal contortions, mice were placed in individual chambers in a temperature-controlled (29° C.) glass plate and the number of abdominal contortions was quantified for 10 minutes.\nPositive responses consist of a contraction of the abdominal muscle together with stretching of hind limbs. For abdominal squashing, the number of times the mice pressed the lower abdominal region against the floor in five minutes was quantified.\nIt was therefore tested whether Rimegepant is effective at reducing pain in a murine model (FIG. 1A). Endometriosis lesions were induced in 40 mice and at day 29 post-induction, mice were randomly assigned to treatment with vehicle or Rimegepant at 3, 10, or 30 mg/kg (n=10 mice per group). Treatment was performed daily by oral gavage. Mechanical abdominal pain was determined weekly, 7 to 42 days post implantation (dpi) using von Frey filaments, while abdominal squashing and contortions were determined by counting these pain behaviors. Lesion size was calculated from the mean of two measurements (width and height in mm). […]"}, "[4]": {"test_system": "mouse endometrial epithelial cells (mEECs)", "test": "mEEC proliferation assay in transwell co-culture with peritoneal macrophages (CyQuant)", "format": "cell-based", "conditions": "Rimegepant 100 nM 30 minutes before CGRP 100 nM for 24 hours", "quoted_text": "(§3) Peritoneal cells were collected in FACS buffer from the abdominal cavity of naïve mice. Peritoneal cavity immune cells were seeded in petri dishes in RPMI media and incubated at 37° C. in 5% CO2 for 60 minutes. Non-adherent cells were discarded, and adherent cells (macrophages) were scraped, centrifuged, and counted.\nFor experiments involving mouse epithelial endometrial cell (mEEC) proliferation, macrophages were plated (100,000 cells per well) onto tissue culture insert and left overnight with 20,000 mEEC plated on the bottom of the well. Stimulus with CGRP (100 nM) or vehicle was performed for 24 hours and then mEEC were used to determine for cell proliferation assay using CyQuant™ kit (Thermo Fisher Scientific #C7026). Treatment with Rimegepant (100 nM) or vehicle was performed 30 minutes before stimulus with CGRP.\nIn this experiment, peritoneal macrophages were plated on a cell culture insert and co-cultured with a mouse epithelial endometrial cell line (mEEC) in a 24-well plate. Cell growth was assessed using the CyQuant™ kit and quantification performed in a spectrophotometer (n=8 well per group).\nMacrophages were plated onto tissue culture insert with mEEC plated on the bottom of the well. […] Results shown are expressed as mean±SEM, n=5−12 (one-way ANOVA followed by Tukey's post hoc or Student's t-test, ****P<0.0001, p<0.001, **p<0.02, *p<0.05)."}, "peritoneal macrophages": {"test_system": "peritoneal macrophages", "test": "efferocytosis assay: peritoneal macrophages with apoptotic 12z-eGFP cells", "format": "cell-based, mouse", "conditions": "Rimegepant 100 nM 30 minutes before CGRP 100 nM for 24 hours; apoptotic 12z-eGFP added for 1 hour", "quoted_text": "as §3\nFor the efferocytosis assay, macrophages (200,000 cells per well) were plated overnight onto a 96-well plate. Stimulus with CGRP (100 nM) or vehicle was performed for 24 hours. After that, etoposide-induced apoptotic 12z-eGFP were added (600,000 cells per well) to the macrophage culture and incubated for 1 hour. Cells were washed 3 times with DPBS to remove non-engulfed 12z-eGFP and then and fluorescence intensity determined. Treatment with Rimegepant (100 nM) or vehicle was performed 30 minutes before stimulus with CGRP. […]\nFor the efferocytosis assay, macrophages were plated overnight onto a 96-well plate and stimulus with CGRP (100 nM) or vehicle was performed for 24 h. […] Cells were washed 3 times with DPBS to remove non-engulfed 12z-eGFP and then and fluorescence intensity determined. […] Results shown are expressed as mean±SEM, n=5−12 (one-way ANOVA followed by Tukey's post hoc or Student's t-test, ****P<0.0001, p<0.001, **p<0.02, *p<0.05)."}, "[5]": {"conditions": "cited from earlier work"}, "[6]": {"test_system": "murine model for endometriosis pain", "test": "endometriosis-associated pain overall (von Frey plus spontaneous pain behaviors) in mouse model", "format": "in vivo", "conditions": "29 to 56 dpi, vs vehicle"}, "[7]": {"conditions": "nociceptor ablation in RTX-treated lesion-bearing mice"}, "[8]": {"conditions": "Rimegepant 3, 10 or 30 mg/kg daily by oral gavage, 29 to 42 dpi, vs vehicle"}},
  "note": "“Also recorded” adds a separate entry of the source.",
  "data": [
    {"molecule": "CC[N+](CC)(CC)CC(=O)Nc1c(C)cccc1C", "note": "[QX-314]", "values": [
      {"measurement": "endometriosis-associated pain", "setting": "[1]; QX-314 0.1 or 1 mg/kg daily i.p., 29 to 35 dpi", "value": "reduced endometriosis-associated pain; also recorded: reduces"},
      {"measurement": "lesion size", "setting": "endometriosis lesions; QX-314 0.1 or 1 mg/kg daily i.p., 29 to 35 dpi, vs vehicle", "value": "reduced lesion size; also recorded: reduces"}
    ]},
    {"molecule": "C=C(C)[C@]12C[C@@H](C)[C@@]34O[C@](Cc5ccccc5)(O[C@@H]1[C@@H]3C=C(COC(=O)Cc1ccc(O)c(OC)c1)C[C@]1(O)C(=O)C(C)=C[C@@H]41)O2", "note": "[RTX, resiniferatoxin toxin]", "values": [
      {"measurement": "evoked pain", "setting": "[2]; [7]", "value": "reduced"},
      {"measurement": "spontaneous pain behaviors", "setting": "[3]; [7]", "value": "reduced"},
      {"measurement": "lesion size", "setting": "endometriosis lesions; [7]", "value": "reduced"}
    ]},
    {"molecule": "N[C@@H]1c2cccnc2[C@H](OC(=O)N2CCC(n3c(=O)[nH]c4ncccc43)CC2)CC[C@H]1c1cccc(F)c1F", "note": "[Rimegepant]", "values": [
      {"measurement": "abdominal mechanical threshold to the von Frey fibers", "setting": "[2]; [8]", "value": "increased"},
      {"measurement": "number of abdominal contortion", "setting": "[3]; [8]", "value": "reduced"},
      {"measurement": "number of abdominal squashing", "setting": "[3]; [8]", "value": "reduced"},
      {"measurement": "endometriosis-associated pain", "setting": "[1]; Rimegepant 3, 10 or 30 mg/kg daily by oral gavage, 29 to 42 dpi", "value": "reduces endometriosis-associated pain"},
      {"measurement": "lesion size", "setting": "endometriosis lesions; [8]", "value": "reduced lesion size; also recorded: reduces"},
      {"measurement": "growth (proliferation) of mEEC promoted by CGRP-stimulated macrophages", "setting": "[4]", "value": "inhibited; also recorded: reduces mEEC proliferation"},
      {"measurement": "efferocytosis activity of CGRP-stimulated macrophages (eGFP fluorescence intensity)", "setting": "peritoneal macrophages", "value": "rescued; also recorded: restores normal levels of efferocytosis"},
      {"measurement": "preclinical safety profile upon chronic treatment", "setting": "[5]; chronic treatment (26 weeks)", "value": "safe preclinical profile"},
      {"measurement": "adverse effects on fertility", "setting": "[5]; doses as high as 60 mg/kg", "value": "no adverse effects on fertility"}
    ]},
    {"molecule": "C[C@@H]1[C@H](c2ccccc2)C[C@H](NC(=O)c2cnc3c(c2)C[C@@]2(C3)C(=O)Nc3ncccc32)C(=O)N1CC(F)(F)F", "note": "[Ubrogepant]", "values": [
      {"measurement": "lesion size", "setting": "endometriosis lesions; Ubrogepant 50 mg/kg daily per oral gavage, 29 to 56 dpi, vs vehicle", "value": "significantly smaller"},
      {"measurement": "lesion size", "setting": "endometriosis lesions; Ubrogepant 50 mg/kg daily per oral gavage, 29 to 56 dpi, vs vehicle, listed as Ubrogevant", "value": "reduce"},
      {"measurement": "endometriosis-associated pain", "setting": "[6]; Ubrogepant 50 mg/kg daily per oral gavage", "value": "significant reduction"},
      {"measurement": "endometriosis-associated pain", "setting": "[6]; Ubrogepant 50 mg/kg daily per oral gavage, listed as Ubrogevant", "value": "reduce"}
    ]},
    {"molecule": "B1", "values": [
      {"measurement": "lesion size", "setting": "endometriosis lesions; Fremanezumab 100 mg/kg subcutaneous injection, 29 to 56 dpi, vs vehicle", "value": "significantly smaller; also recorded: reduce"},
      {"measurement": "endometriosis-associated pain", "setting": "[6]; Fremanezumab 100 mg/kg subcutaneous injection", "value": "significant reduction; also recorded: reduce"}
    ]},
    {"molecule": "B2", "values": [
      {"measurement": "lesion size", "setting": "endometriosis lesions; Galcanezumab 4 mg/kg subcutaneous injection, 29 to 56 dpi, vs vehicle", "value": "reduce"},
      {"measurement": "endometriosis-associated pain", "setting": "[6]; Galcanezumab 4 mg/kg subcutaneous injection", "value": "significant reduction; also recorded: reduce"}
    ]}
  ]
}
